The subject of data set [1] is Tumour. As to the kind of experiment: Degree of tumour necrosis obtained at an equivalent muscle damage level. The class given is in vivo. The conditions noted are these: for tumour necrosis for specified levels of muscle damage, in words: versus corresponding compounds of EP-A-0,186,962. The text has this:
(§1) In preliminary tests the new compounds have shown similar results as regards skin sensitivity to those given in EP-A-0,186,962. Moreover, the para and meta dihydroxy compounds have been shown specifically, improved properties in other respects which may be expected in all the compounds.

The subject of data set [2] is PC6 plasma cell tumour. As to the kind of experiment: Tumour photo-necrosis: depth of tumour necrosis after sensitiser injection and 10 J cm^-2 light. The conditions noted are these: mean ± SE. The class given is in vivo, female BALB/c mice. Here is the method: (§2) the method of testing is that the PC6 plasma cell tumour, obtained initially from the Chester Beatty Research Institute, was grown by inoculating 0.3-0.6×10^6 cells subcutaneously in female BALB/c mice. It was used about two weeks later, when it was […] in its longest diameter and […] deep. Sensitisers were injected in dimethyl sulphoxide intra-peritoneally (2.5 ul g^-1) and, twenty four hours later, skin over the tumours was depilated, the mice anaesthetised and tumours exposed to 10 J cm^-2 light. Wavelengths for illumination were the longest wavelength absorption peaks in the red in solutions of sensitiser in fetal calf serum, and were 652-653 nm for the compounds of Examples 1 to 3 and 741 nm for the compound of Example 4. The light source was a copper vapour laser with an output of 10 to 12 watts (Cu 10 laser, Oxford Lasers Ltd) pumping a D2 10K dye laser (Oxford Lasers Ltd). The dye was rhodamine 640 (Applied Photophysics Ltd) for illumination at 652-653 nm and LDS-722 for illumination at 741 nm. Light intensity at the tumour surface was kept below 0.3 W cm^-2, where thermal effects were undetectable.
Twenty four hours after illumination […], 0.2 ml 1% Evans blue (Sigma) in saline was given intravenously and tumours were removed one hour later and fixed in formolsaline. The fixed tumours were sliced at right angles to the surface and the depth of necrosis measured with a dissecting microscope fitted with an eye piece graticule.

Data set [3] in a line: Muscle oedema (muscle damage) for specified depths of tumour necrosis. The class given is in vivo. The conditions noted are these: for muscle damage for specified levels of tumour necrosis, in words: versus corresponding compounds of EP-A-0,186,962.
Excerpt: as §1

A short description of data set [4]: Longest wavelength absorption peak in the red in fetal calf serum. The data set is classed as physicochemical. The conditions noted are these: in solutions of sensitiser in fetal calf serum. Here is the method: as §2
Setting [5] is: at muscle oedema 10% increase in muscle weight.
The mark [6] stands for this setting: at muscle oedema 20% increase in muscle weight.
[7] abbreviates: at depth of tumour necrosis 3.0 mm.
[8] abbreviates: at depth of tumour necrosis 3.5 mm.
Setting [9] is: at depth of tumour necrosis 4.0 mm.
Setting [10] is: at depth of tumour necrosis 5.0 mm.
Setting [11] is: at depth of tumour necrosis 5.5 mm.

As for `Oc1ccc(-c2c3nc(c(-c4ccc(O)cc4)c4ccc([nH]4)c(-c4ccc(O)cc4)c4nc(c(-c5ccc(O)cc5)c5ccc2[nH]5)CC4)C=C3)cc1` [Example 1, 2,3-dihydro-5,10,15,20-tetra(p-hydroxyphenyl) porphyrin], the “Tumour Necrosis” value is 3.5 mm in data set [1] (setting [5]) and roughly 4.0 mm in data set [1] (setting [6]). In addition, in data set [1], the “tumour necrosis for specified levels of muscle damage, in words” value is “more tumour necrosis than the corresponding compounds of EP-A-0,186,962”. For the same molecule, the “Depth of Tumour Necrosis” value in data set [2] (dose 3.125 μM/Kg i.p., 653 nm) was 2.13 ± 0.50 mm; in data set [2] (dose 6.25 μM/Kg i.p., 653 nm) it was 3.50 ± 0.54 mm. Moreover, the “Muscle Oedema (% Increase in Weight)” value in data set [3] (setting [7]) was 8%; in data set [3] (setting [8]) it was 10%. For the same molecule, the “muscle damage for specified levels of tumour necrosis, in words” value in data set [3] was “considerably less muscle damage than the corresponding compounds of EP-A-0,186,962”.
For the molecule `Oc1cccc(-c2c3nc(c(-c4cccc(O)c4)c4ccc([nH]4)c(-c4cccc(O)c4)c4nc(c(-c5cccc(O)c5)c5[nH]c2CC5)C=C4)C=C3)c1` [Example 2, 2,3-dihydro-5,10,15,20-tetra(m-hydroxyphenyl) porphyrin], the “Tumour Necrosis” value in data set [1] (setting [5]) is given as 5.5-6 mm; in data set [1] (setting [6]), 6.5 mm. In data set [1], the “tumour necrosis for specified levels of muscle damage, in words” value was “more tumour necrosis than the corresponding compounds of EP-A-0,186,962”. In addition, the “Depth of Tumour Necrosis” value in data set [2] (dose 0.375 μM/Kg i.p., 652 nm) was determined as 3.79 ± 0.28 mm; in data set [2] (dose 0.75 μM/Kg i.p., 652 nm), 5.41 ± 0.39 mm. Besides, the “Muscle Oedema (% Increase in Weight)” value was 2% in data set [3] (setting [8]), 3% in data set [3] (setting [9]), 5% in data set [3] (setting [10]) and 7% in data set [3] (setting [11]). For the same molecule, the “muscle damage for specified levels of tumour necrosis, in words” value in data set [3] is given as “considerably less muscle damage than the corresponding compounds of EP-A-0,186,962”.
For `Oc1ccccc1-c1c2nc(c(-c3ccccc3O)c3ccc([nH]3)c(-c3ccccc3O)c3nc(c(-c4ccccc4O)c4[nH]c1CC4)C=C3)C=C2` [Example 3, 2,3-dihydro-5,10,15,20-tetra (o-hydroxyphenyl) porphyrin], the “Depth of Tumour Necrosis” value is given as 3.69 ± 0.74 mm in data set [2] (dose 3.125 μM/Kg i.p., 652 nm) and 4.16 ± 0.27 mm in data set [2] (dose 6.25 μM/Kg i.p., 652 nm).
For the molecule `Oc1cccc(-c2c3nc(c(-c4cccc(O)c4)c4ccc([nH]4)c(-c4cccc(O)c4)c4nc(c(-c5cccc(O)c5)c5ccc2[nH]5)CC4)CC3)c1` [Example 4, 7,8,17,18-tetrahydro-5,10,15,20-tetra(m-hydroxyphenyl) porphyrin], the “Depth of Tumour Necrosis” value in data set [2] (dose 0.39 μM/Kg i.p., 741 nm) came out at 5.22 ± 1.21 mm. In addition, in data set [4], the “longest wavelength absorption peak in the red” value came to 741 nm.
As to `Oc1cccc(-c2c3nc(c(-c4cccc(O)c4)c4ccc([nH]4)c(-c4cccc(O)c4)c4nc(c(-c5cccc(O)c5)c5ccc2[nH]5)C=C4)C=C3)c1` [Meta (Compounds of EP-A-0186962), 5,10,15,20-tetra(m-hydroxyphenyl) porphyrin, reference compound], the “Tumour Necrosis” value in data set [1] (setting [5]) is 3.5 mm; in data set [1] (setting [6]), 4.0 mm. Also, the “Muscle Oedema (% Increase in Weight)” value in data set [3] (setting [8]) stood at 10%; in data set [3] (setting [9]), 20%; in data set [3] (setting [10]), 36%; in data set [3] (setting [11]), 49%.
With `Oc1ccc(-c2c3nc(c(-c4ccc(O)cc4)c4ccc([nH]4)c(-c4ccc(O)cc4)c4nc(c(-c5ccc(O)cc5)c5ccc2[nH]5)C=C4)C=C3)cc1` [Para (Compounds of EP-A-0186962), 5,10,15,20-Tetra(p-hydroxyphenyl)porphyrin, reference compound], the entries for the “Tumour Necrosis” value in data set [1] (setting [5]) and in data set [1] (setting [6]) were 2.25 mm and 3.0 mm, respectively. Further, the “Muscle Oedema (% Increase in Weight)” value in data set [3] (setting [7]) was found to be 20%; in data set [3] (setting [8]), 22%.
